Assay results taken from patent US20080031866A1, “METHOD FOR MODULATING THE PHARMACOKINETICS AND METABOLISM OF A THERAPEUTIC AGENT” (priority 2006, published 2008).

Key:
[1] = IV pharmacokinetics of Compound 1 and its glucuronides in rats; assay type: in vivo, rat; settings: Sprague Dawley, rat, plasma, Compound 1 2 mg/kg IV
Description: Two separate IV studies were carried out using two separate lots of animals. IV-A was run on the same lot of animals as the oral gavage study and IV-B was run on the same lot of animals as the intraduodenal and intra-colonic studies.
For the IV dosing solutions (IV), Compound 1 was prepared by addition to DI water containing 20% hydroxypropyl β-cyclodextran by weight.
For the IV and oral gavage dosing (sampling at jugular and portal vein), young adult male Sprague Dawley rats weighing 250-400 g were purchased from Hilltop Lab Animals Inc. All rat experiments were conducted under approved animal protocols. The rats for the oral gavage dosing were catheterized at Hilltop Lab Animals Inc, had two chronic catheters for sampling: jugular and portal, were housed in cages of Culex™ Automated Blood Sampler (ABS) and blood samples were collected simultaneously via both cannula and were controlled by the Culex™ ABS control software.
(§1) A quantitative method for determining the amount of (6,7-dimethoxy-2,4-dihydro-indeno[1,2-c]pyrazol-3-yl)-(3-fluoro-phenyl)-amine Compound 1 and its major metabolites, glucuronide A (Cpd 1-GluA) and glucuronide B (Cpd 1-GluB) (see Scheme A) in rat plasma was developed using phenacetin as an internal standard. [drawing 1]
(§2) The two glucuronide conjugates were prepared and purified to permit accurate quantification of the levels of intact parent Compound 1 versus Cpd 1-GluA and Cpd 1-GluB. Each standard curve for Compound 1, Cpd 1-GluA, and Cpd 1-GluB generated from rat plasma included ten concentration levels. […] The quantitative procedure for each sample included: sample preparation, HPLC separation and mass spectrometry detection.
(§3) The rat plasma was prepared using protein precipitation techniques. Reference standards and quality control samples in rat plasma for Compound 1 were transferred to a 96 deep-well plate. The precipitation solution contained 100 ng/ml of internal standard in acetonitrile. 300 μl of precipitation solution were added to 100 μl of each standard, quality control and plasma sample. Samples were vortexed for 10 mins, then centrifuged at 4500 RPM for 10 mins. 10 μl of each sample were injected for LC/MS/MS analysis.
(§4) The HPLC column chosen for the bioanalysis was purchased from Thermo Electron (Hypersil BetaBasic C18, 5 cm×2.1 mm). The eluting solvents were composed of Solvent A: 0.1% formic acid in H2O and Solvent B: 0.1% formic acid in acetonitrile. A step gradient was used and flow rate was 300 μl/min. The total run time was 3.2 mins. Solvent B was increased from 35% at 0 min to 75% at 2.1 mins and decreased back to 35% at 2.2 mins. The retention times for Compound 1, phenacetin, Cpd 1-GluA and Cpd 1-GluB were 1.1 min, 0.9 min, 1.3 min, and 1.6 min, respectively.
API3000 with a Turbo Ionspray interface from Applied Biosystems was used for the detection of Compound 1, the internal standard and major metabolites. Electrospray ionization was performed in the positive ion mode heated nebulizer with a temperature of 300° C. LC/MS/MS chromatograms were acquired in MRM (multiple reaction mode). The MRM transitions for Compound 1, the internal standard, Cpd 1-GluA and Cpd 1-GluB were from 326.3 to 190.6, 181.1 to 110.3, 502.2 to 368.3 and 502.2 to 326.4, respectively.
Pharmacokinetic analysis of the plasma concentration data was performed to determine the maximum plasma concentration (Cmax) for the oral dose, and the concentration at zero time (C0; Compound 1 only) by the extrapolation of drug concentrations back to the time of i.v. dosing, the time to maximum plasma concentration (Tmax) following the oral dose, area under the plasma concentration vs. time curve (AUC), terminal half-life (t1/2), plasma clearance (CL/F; Compound 1 only), and volume of distribution at steady state (Vdss; Compound 1 only) for the i.v. dose, using the WinNonlin (Version 3.1, Pharsight, Palo Alto, Calif.) validated computer program.

[2] = Intraduodenal dosing with and without β-glucuronidase, catheterized rat; assay type: in vivo; settings: 10 mg/kg, rats N=6; for AUC / Cmax / concentration at 0 h / concentration at 0.25 h / concentration at 0.5 h / concentration at 1 h / concentration at 2 h / concentration at 3 h / concentration at 4 h / concentration at 5 h / concentration at 6 h: male, Sprague Dawley, rat, plasma; for AUC: read-out: AUC average ± standard deviation 0 to 6 hours; for Cmax: read-out: Cmax average ± standard deviation; for concentration at 0 h / concentration at 0.25 h / concentration at 0.5 h / concentration at 1 h / concentration at 2 h / concentration at 3 h / concentration at 4 h / concentration at 5 h / concentration at 6 h: other: intraduodenal
Description: A catheterized rat model was used in which the agent alone or agent and β-glucuronidase enzyme was administered intraduodenally or intracolonically. The intraduodenal and intracolonic dosing was intended to prevent the potential for loss of enzymatic activity when orally dosing the β-glucuronidase (e.g. by degradation in the stomach). […]
For the oral gavage dosing, Compound 1 was prepared in neat PEG-400. For the intraduodenal and intracolonic dosing solutions, Compound 1 was added to neat Tween 80, the mixture was sonicated for thirty minutes at 45° C. until Compound 1 was completely dissolved and then deionized (DI) water was added to form a solution consisting of 20% Tween 80 and 80% DI water by weight.
For the oral enzyme solutions, β-glucuronidase was added to the final formulation at a concentration of 57,600 units/ml.
For the intraduodenal and intracolonic dosing, male Sprague Dawley rats weighing 300-400 g were purchased from Charles River Labs. All rat experiments were conducted under approved animal protocols. The rats were catheterized at Charles River Labs and had one or more of the following chronic catheters for dosing and sampling: jugular/carotid, duodenal, and colonic. Rats were limited to only one GI catheter and one vascular catheter. For IV dosing, rats were purchased with jugular and carotid catheters for dosing in the jugular catheter and blood sampling through the carotid catheter. For intraduodenal/intracolonic dosing, rats had one of the GI catheters for dosing and a carotid catheter for blood sampling.
The surgeries were done two weeks prior to start of testing. Rats were fed 4 hours post dose administration. All rats were dosed without anesthesia and sacrificed at the end of the study.
as §1, §2, §3, §4
API3000 with a Turbo Ionspray interface from Applied Biosystems was used for the detection of Compound 1, the internal standard and major metabolites. Electrospray ionization was performed in the positive ion mode heated nebulizer with a temperature of 300° C. LC/MS/MS chromatograms were acquired in MRM (multiple reaction mode). […]

[3] = Compound 1 10 mg/kg intraduodenal with β-glucuronidase
[4] = Compound 1 10 mg/kg intraduodenal without enzyme

COc1cc2c(cc1OC)-c1n[nH]c(N(c3cccc(F)c3)[C@H]3O[C@@H](C(=O)O)[C@H](O)[C@@H](O)[C@@H]3O)c1C2 [Cpd 1-GluA]
AUC ([1]; male rats N=4, read-out: AUC average ± standard deviation): 8210 ng·h/mL
Cmax ([1]; male rats N=4, read-out: Cmax average ± standard deviation): 2970 ng/mL
concentration at 0 h ([1]; male rats N=4, retro orbital sinus, 0 hrs): 0 ng/mL
concentration at 0.08 h ([1]; male rats N=4, retro orbital sinus, 0.08 hrs): 2440 ng/mL
concentration at 0.33 h ([1]; male rats N=4, retro orbital sinus, 0.33 hrs): 2970 ng/mL
concentration at 1 h ([1]; male rats N=4, retro orbital sinus, 1 hr): 1670 ng/mL
concentration at 2 h ([1]; male rats N=4, retro orbital sinus, 2 hrs): 492 ng/mL
concentration at 4 h ([1]; male rats N=4, retro orbital sinus, 4 hrs): 68.6 ng/mL
concentration at 8 h ([1]; male rats N=4, retro orbital sinus, 8 hrs): 369 ng/mL
concentration at 24 h ([1]; male rats N=4, retro orbital sinus, 24 hrs): 18.6 ng/mL
Tmax ([1]; male rats): 18 min
AUC [2, 3]: 8940 ± 2140 ng·h/mL
Cmax [2, 3]: 6450 ng/mL
AUC [2, 4]: 1220 ± 371 ng·h/mL
Cmax [2, 4]: 717 ± 171 ng/mL
concentration at 0 h [2, 3]: 0 ng/mL
concentration at 0.25 h [2, 3]: 6450 ng/mL
concentration at 0.5 h [2, 3]: 4820 ng/mL
concentration at 1 h [2, 3]: 3860 ng/mL
concentration at 2 h [2, 3]: 812 ± 426 ng/mL
concentration at 3 h [2, 3]: 462 ± 208 ng/mL
concentration at 4 h [2, 3]: 480 ± 107 ng/mL
concentration at 5 h [2, 3]: 420 ± 74.1 ng/mL
concentration at 6 h [2, 3]: 462 ± 113 ng/mL
concentration at 0 h [2, 4]: 0 ng/mL
concentration at 0.25 h [2, 4]: 666 ± 198 ng/mL
concentration at 0.5 h [2, 4]: 687 ± 178 ng/mL
concentration at 1 h [2, 4]: 463 ± 164 ng/mL
concentration at 2 h [2, 4]: 118 ± 36.3 ng/mL
concentration at 3 h [2, 4]: 66.6 ± 42 ng/mL
concentration at 4 h [2, 4]: 88.2 ± 53.9 ng/mL
concentration at 5 h [2, 4]: 83.1 ± 23.2 ng/mL
concentration at 6 h [2, 4]: 90.2 ± 28.1 ng/mL
AUC average ± standard deviation 0 to 6 hours [2, 3]: 8,723.2 ± 2,132.6 ng · hr/ml
AUC average ± standard deviation 0 to 6 hours [2, 4]: 1,172.7 ± 361.2 ng · hr/ml
